Laboratory results: US20230285357A1, “COMPOSITIONS AND METHODS FOR […] CELLS” (The Regents of the University of California, priority 2020, published 2023)

Assays:
GSK3α and GSK3β = conditions: cited from earlier work
osteoblasts [1] = experiment: RNA sequencing of SB216763-treated osteoblasts; assay type: cell-based, mouse
Source text: The differential expression profiles of SB216763-treated osteoblasts using RNA sequencing was examined. […] These overlapped with 1357 genes identified as low expression when osteoblast vs EC was compared, and a 307-gene cohort with decreased expression in both analyses was identified (FIG. 1, Part G). Gene Ontology (GO) termed these genes enriched for the signal pathway of osteoblastic differentiation and bone development (FIG. 1, Part G). Similarly, 519 genes with increased expression after SB21673 treatment were found (FIG. 1, Part H).
For RNA sequencing, osteoblasts were treated with 10 μM SB216763 for 14 days, and RNA was isolated for library preparation. The sequencing was conducted by the Pathology Research Services at UCLA. Spliced Transcripts Alignment to Reference (STAR) was used for the read alignment. Cufflinks was used to assemble transcripts, estimate their abundances, and assess the differential expression. GO analysis and pathway enrichment of the identified genes were performed.

[2] = system: vascular calcification in Mgp−/− mice; experiment: Late vascular calcification in Mgp−/− mice; assay type: in vivo, mouse
Experimental: It was next examined if SB216763 reversed osteogenesis in vascular calcification by treating Mgp^−/− mice at 4 weeks of age for 2 weeks (FIG. 5, Part F).
Mgp^+/− (B6.129S7-Mgptm1Kry/KbosJ), Col1α1^CreERT2 (B6.Cg-Tg(Col1α1-cre/ERT2)1Crm/J), GSK3β^flox/flox (B6.129(Cg)-Gsk3btm2Jrw/J) and Osx-Gfptg (B6.Cg-Tg(Sp7-tTA,tetO-EGFP/cre)1Amc/J) mice on C57BL/6J background were purchased from the Jackson Laboratory. Genotypes were confirmed by PCR, and experiments were performed with generation F4-F6. Littermates were used as wild type controls. All mice were fed a standard chow diet. The studies were reviewed and approved by the Institutional Review Board and conducted in accordance with the animal care guidelines set by the University of California, Los Angeles (UCLA). The investigation conformed to the National Research Council, Guide for the Care and Use of Laboratory Animals, Eighth Edition (Washington, D.C.: The National Academies Press, 2011).
(§1) MicroCT imaging was performed at the Crump Imaging Center at UCLA. All the samples were scanned on a high-resolution, volumetric microCT scanner (CT125). The image data were acquired with the following parameters: 10 μm isotropic voxel resolution; 200 ms exposure time; 2,000 views and 5 frames per view. The microCT-generated DICOM files were used to analyze the samples and to create volume renderings of the regions of interest. The raw data files were viewed using the MicroView 3-D volume viewer and analysis tool (GE Healthcare) and AltaViewer™ Software. Additionally, images of the samples were generated using SCIRun (Scientific Computing and Imaging Institute).

[3] = system: aortic cells of Osx-GfptgMgp−/− mice; experiment: Osteoblastic-lineage tracing in Osx-GfptgMgp−/− mice, FACS of aortic cells; assay type: in vivo, mouse; conditions: Osx-GfptgMgp−/− mice treated for 2 weeks
Experimental: Then, mice were treated with or without SB216763 for 2 weeks. […] Then, the alteration of GFP and CD31 double positive cells (GFP+CD31+) were characterized after SB216763 treatment. […] Same numbers of cells of each group were used to perform a transplantation experiment to examine the capacity of bone formation by using bone formation assay in vivo.
FACS analysis was performed as previously described. The cells were stained with fluorescein isothiocyanate (FITC)-, phycoerythrin (PE)-, or Alexa Fluor 488 (AF-488)-conjugated antibodies against CD31 and VE-cadherin (all from BD biosciences, 550274 and 562243), osterix (Santa Cruz Biotechnology, sc-22536). Nonspecific fluorochrome- and isotype-matched IgGs (BD Pharmingen) served as controls.

ectopic bone formation = experiment: Ectopic bone formation in vivo after transplantation of treated cells; parameters: species or system mouse
Experimental: (§2) To assess the functional capacity of SB216763-treated osteoblasts, they were treated with osteogenic induction media in vitro. […] A transplantation experiment was then performed to examine the capacity for bone formation using a well-established bone formation assay in vivo. This assay was adapted and eGFP positive cells were used, which were isolated from SB216763-treated Flk1-eGFP osteoblasts (FIG. 2, Part A).
(§3) The cells were then subjected to osteogenic induction media. […] Cells was transplanted into nude mice to test ectopic bone formation.
as §1
All the surgeries were performed on a heated pad with a connection to a continuous flow of isoflurane. Ectopic bone formation was performed as previously described: 5×10^5 cells were mixed with 40 mg hydroxyapatite/tricalcium phosphate power (SALVIN™, ORASTRUCT-0.5 CC) and incubated in a 1 ml syringe at 37° C. in 5% CO2 overnight. After disinfection with 70% ethanol, a skin incision was made on the back of mouse. A subcutaneous pouch was formed by blunt dissection. The mixture of cells and hydroxyapatite/tricalcium phosphate was transplanted into the pouch and the incision was closed. The implants were examined by microCT imaging and histology 12 weeks after transplantation.

GFP+CD31+ aortic cells = experiment: Hindlimb ischemia model with GFP+CD31+ aortic cells of treated mice; assay type: in vivo, mouse; conditions: mice transplanted with GFP+CD31+ aortic cells of treated group
Experimental: The capacity of GFP+CD31+ aortic cells for vascular repair was examined by using hindlimb ischemia model. […] The murine model of hindlimb ischemia was performed as previously described. A 10 mm long incision of the skin was made towards the medial thigh. The femoral artery was exposed and separated from femoral vein and nerve. Silk sutures were used to tie the proximal and the distal end of femoral artery with double knots. The cells (5×10^5) were transplanted into the surgical area and the incision was closed. Laser Doppler perfusion imaging was used to monitor the blood flow at different time points. Histology and immunostaining were used to examine the vascularization 2 weeks after transplantation.

osteoblasts [4] = experiment: Osteogenesis assay in osteogenic induction media, von Kossa staining; assay type: cell-based, mouse
Experimental: as §2, §3

[5] = system: bone tissue of wild type mice; experiment: Effect of long treatment on bone formation in wild type mice; assay type: in vivo, mouse; conditions: wild type mice at 8 weeks of age, 5 ug/g daily for 8 weeks
Experimental: To determine if long-treatment of SB216763 has any effects on bone formation, wild type mice were treated at 8 weeks of age with SB216763 (5 ug/g daily) for 8 weeks. After treatment, the bone tissue was examined by micro-CT imaging and immunostaining.
as §1

[6] = 4-fold differential threshold level
[7] = Mgp−/− mice at 4 weeks of age treated for 2 weeks

hemorrhage in the bone tissue [5]: had not detected any hemorrhage
relative bone volumes and connectivity densities, micro-CT ([5]; treated vs non-treated): no differences
Compound: Cn1cc(C2=C(c3ccc(Cl)cc3Cl)C(=O)NC2=O)c2ccccc21 [SB216763]
inhibition of GSK3 isoforms GSK3α and GSK3β (GSK3α and GSK3β): specifically inhibits the activity of these GSK3 isoforms in an ATP competitive manner
transcript profile (osteoblasts [1]; 10 μM for 14 days): increased the similarities between the treated osteoblasts and ECs
cohort with decreased expression in both analyses (overlap with osteoblast vs EC low expression genes) (osteoblasts [1]; [6]): 307 gene
cohort with increased expression in both analyses (overlap with EC vs osteoblast high expression genes) (osteoblasts [1]; [6]): 235 genes
genes decreased in expression (osteoblasts [1]; [6]): 827 genes
genes with increased expression (osteoblasts [1]; [6]): 519 genes
CD31-positive cells co-expressing VE-cadherin and osterix, FACS [2, 7]: decrease of CD31-positive cells that co-expressed VE-cadherin and osterix
CD31-positive cells expressing VE-cadherin only, FACS [2, 7]: increase of CD31-positive cells that expressed VE-cadherin only
aortic calcification, microCT imaging [2, 7]: reduction of aortic calcification
histology of calcified areas of the aortas [2, 7]: change in morphology in calcified areas of the aortas
mineralization of whole aortic tissues, alizarin red staining [2, 7]: reduction of mineralization
total aortic calcium and mineral deposition [2, 7]: decrease of total aortic calcium and mineral deposition
osteogenic markers in aortic tissue, real-time PCR ([2]; treated Mgp−/− mice compared to non-treated mice): decrease of osteogenic markers
aortic cells co-expressing GFP and CD31, FACS [3]: decreased number of cells that co-expressed GFP and CD31
aortic cells expressing only CD31, FACS [3]: increased number of cells that only expressed CD31
osteocytes in implants, histology and immunostaining (ectopic bone formation; SB216763-treated cells with SMAD1 overexpression or knockdown of β-catenin): presence of osteocytes
osteocytes in implants, histology and immunostaining (ectopic bone formation; implants with eGFP positive cells from treated osteoblasts): lack of osteocytes
ectopic bone by microCT (ectopic bone formation; implants with eGFP positive cells from treated osteoblasts vs osteoblast controls): smaller size of ectopic bone, less trabecular formation and less bone volume
limb blood flow, Laser Doppler perfusion imaging (GFP+CD31+ aortic cells): higher limb blood flow
vascular density, histology (GFP+CD31+ aortic cells): increase in vascular density
mineralization, von Kossa staining (osteoblasts [4]; SB216763-treated cells after restoring SMAD1 or depletion of β-catenin): clear mineralization
mineralization, von Kossa staining (osteoblasts [4]; SB216763-treated cells in osteogenic induction media): lack of mineralization
microstructure of bone tissues and vasculature, immunostaining of CD31 and osterix [5]: no changes in the microstructure of bone tissues and vasculature
